Reference: the OPERA property sets (Mansouri et al. 2018)
≈ marks a conversion by molar mass, not a printed value.

details: not given

SMILES | logP | solubility
CC(C)CCCCCCCOP(=O)(Oc1ccccc1)Oc1ccccc1 | 5.44 | –
CC(C)c1ccccc1-c1ccccc1 | 5.2 | –
CCOC(=O)c1ccccc1S(=O)(=O)NC(=O)Nc1nc(Cl)cc(OC)n1 | 2.5 | –
CCCCCNC(=O)CCC(NS(=O)(=O)c1ccccc1)C(=O)O (stereo not drawn) | 0.03 | –
CCC(C)C(NC(=O)c1cn(CC)c2nc(C)ccc2c1=O)C(=O)OC (stereo not drawn) | 3.15 | –
Cc1c(Cl)cc(C(C)C)c(Cl)c1Cl | 6.2 | –
COc1nc(C)nc(NC(=O)NS(=O)(=O)c2ccccc2Cl)n1 | 2 | –
CC(C)COCCO | 0.75 | –
Nc1nc(=O)n([C@H]2CC[C@@H](CO)O2)cc1F | -1.09 | –
CCNc1nc(NCC)nc(SC)n1 | 2.8 | –
Cc1cc(Cl)c(Cl)cc1Cc1c(Cl)cccc1Cl | 7.15 | –
NC(Cc1ccc(O)c(O)c1)C(=O)OCCc1ccc(Cl)cc1 (stereo not drawn) | 2.33 | –
CCN(C)N=O | 0.04 | –
CCOC(=O)C1=C(COCCN)NC(C)=C(C(=O)OC)C1c1ccccc1Cl (stereo not drawn) | 3 | –
CCCOC(=O)[C@@H](N)Cc1ccc(O)c(O)c1 | 0.76 | –
O=C(OCc1ccccc1)c1cccnc1 | 2.4 | –
C=C(Br)CC1(C(C)CC)C(=O)NC(=O)NC1=O (stereo not drawn) | 2.2 | –
N[C@@H]1[C@H]2CN(c3nc4c(cc3F)c(=O)c(C(=O)O)cn4-c3ccc(F)cc3F)C[C@@H]12 | 0.31 | –
C=CCN(CC=C)CC=C | – | 18.2 mM (≈ 2500 µg/mL)
CC1(CCl)C2CC(Cl)(Cl)C1(C(Cl)Cl)CC2(Cl)Cl (stereo not drawn) | 5.49 | –
NC(N)=S | -1.08 | –
Cc1cccc2c1ccc1ccccc12 | 5.08 | –

SMILES | logP | solubility
O=C1c2cc([N+](=O)[O-])ccc2-c2ccc([N+](=O)[O-])cc21 | 2.84 | –
CCOc1ccccc1NCc1cnc2nc(N)nc(N)c2c1C | 2.07 | –
Clc1cc2c(Cl)ccc(Cl)c2c(Cl)c1Cl | 6.8 | –
CC1=NS(=O)(=O)c2ncccc2N1 | -0.91 | –
Cc1ccccc1OCCN(C)C | 2.23 | –
CCCCOCCNc1ccc(Cl)cc1C(N)=O | 2.99 | –
CCCCOc1ccc([N+](=O)[O-])cc1NC(C)=O | 2.26 | –
Clc1c(Cl)c(Cl)c2c(oc3c(Cl)c(Cl)c(Cl)c(Cl)c32)c1Cl | 8.6 | –
O=[N+]([O-])c1ccc2c(c1)CCN2 | 2.07 | –
CC(=O)Oc1ccc(CC(N)C(=O)O)cc1 (stereo not drawn) | -1.33 | –
CCCC(C)CCC(C)=O (stereo not drawn) | 2.92 | –
O=P(O)(O)CN(CCCCCCN(CP(=O)(O)O)CP(=O)(O)O)CP(=O)(O)O | -4.43 | 30.5 mM (≈ 15000 µg/mL)
CC(=O)CC(C)C | 1.31 | –
S=C1NCCN1 | -0.66 | –
Cc1cn(C2CC(O)C(CO)O2)c(=O)[nH]c1=S (stereo not drawn) | -0.07 | –
CC(=O)c1ccc2cc(C(C)C(=O)OCC(=O)N(C)C)ccc2c1 (stereo not drawn) | 2.05 | –
COc1cc(C(=O)NCc2ccc(OCCN(C)C)cc2)cc(OC)c1OC | 2.29 | –
Nc1c(Cl)c(Cl)c(N)c2c1C(=O)c1ccccc1C2=O | 4.56 | –
Cn1cnc2c(N)ncnc21 | -0.03 | –
CCCCc1ccc(NC(=O)CN(CC(=O)O)CC(=O)O)cc1Br | 0.1 | –
Cc1c(Cl)c(Cl)c(C(C)C)c(Cl)c1Cl | 6.8 | –

same assay, conditions: 20 °C

SMILES | solubility
CCN(C)N=O | 3400 mM (≈ 300000 µg/mL)
CCOP(=S)(OCC)ON=C(C#N)c1ccccc1Cl | 0.00511 mM (≈ 1.7 µg/mL)

same assay, conditions: 24.0 °C

SMILES | log10 OH rate constant (cm³/molecule/s)
C[Si](C)(C)O[Si](C)(C)C | -11.9
C[Si]1(C)O[Si](C)(C)O[Si](C)(C)O1 | -12.3

same assay, conditions: 25 °C

SMILES | solubility
CC(C)c1ccccc1-c1ccccc1 | 0.00306 mM (≈ 0.6 µg/mL)
Nc1ccc2c(c1)C(=O)c1ccccc1C2=O | 0.00073 mM (≈ 0.163 µg/mL)
CCCCCN(CCCCC)CCCCC | 0.0928 mM (≈ 21.1 µg/mL)
CC(C)C(O)C(C)(C)CO (stereo not drawn) | 130 mM (≈ 19000 µg/mL)
Nc1ccc(Cc2ccc(N)cc2)cc1 | 5.04 mM (≈ 1000 µg/mL)
N[C@@H]1[C@H]2CN(c3nc4c(cc3F)c(=O)c(C(=O)O)cn4-c3ccc(F)cc3F)C[C@@H]12 | 0.0295 mM (≈ 12.3 µg/mL)
Clc1c(Cl)c(Cl)c2c(oc3c(Cl)c(Cl)c(Cl)c(Cl)c32)c1Cl | 2.61e-09 mM (≈ 1.16e-06 µg/mL)
C[Si](C)(C)O[Si](C)(C)C | 0.00573 mM (≈ 0.93 µg/mL)
C=C(C)C(=O)OCC(C)C | 9.14 mM (≈ 1300 µg/mL)
O=NN(c1ccccc1)c1ccccc1 | 0.177 mM (≈ 35 µg/mL)
CCCC(C)Cl (stereo not drawn) | 3.2 mM (≈ 341 µg/mL)

same assay, conditions: 25.0 °C

SMILES | log10 OH rate constant (cm³/molecule/s)
FC(F)(F)CC(F)(F)F | -15
O=CCCl | -11.5
FCC(F)(F)C(F)F | -14

same assay, conditions: 28 °C

SMILES | solubility
O=C(O)Cc1c(Cl)ccc(Cl)c1Cl | 0.835 mM (≈ 200 µg/mL)
